Test [1] deals with Calpain activity in SH-SY5Y cells (SBDP-150). The experiment in a line: SH-SY5Y Spectrin western blot assay (SBDP-150 breakdown product, A23187-induced). The conditions noted are these: Homo sapiens, SH-SY5Y cells, read-out: SH-SY5Y Spectrin IC50. The test is classed as cell-based. (In general: In western blotting, separated proteins are transferred to a membrane and probed.)
The next test concerns the target T1, Human Calpain 9/NS1 (Homo sapiens, UniProt O14815).
T1 sequence (O14815 1-690): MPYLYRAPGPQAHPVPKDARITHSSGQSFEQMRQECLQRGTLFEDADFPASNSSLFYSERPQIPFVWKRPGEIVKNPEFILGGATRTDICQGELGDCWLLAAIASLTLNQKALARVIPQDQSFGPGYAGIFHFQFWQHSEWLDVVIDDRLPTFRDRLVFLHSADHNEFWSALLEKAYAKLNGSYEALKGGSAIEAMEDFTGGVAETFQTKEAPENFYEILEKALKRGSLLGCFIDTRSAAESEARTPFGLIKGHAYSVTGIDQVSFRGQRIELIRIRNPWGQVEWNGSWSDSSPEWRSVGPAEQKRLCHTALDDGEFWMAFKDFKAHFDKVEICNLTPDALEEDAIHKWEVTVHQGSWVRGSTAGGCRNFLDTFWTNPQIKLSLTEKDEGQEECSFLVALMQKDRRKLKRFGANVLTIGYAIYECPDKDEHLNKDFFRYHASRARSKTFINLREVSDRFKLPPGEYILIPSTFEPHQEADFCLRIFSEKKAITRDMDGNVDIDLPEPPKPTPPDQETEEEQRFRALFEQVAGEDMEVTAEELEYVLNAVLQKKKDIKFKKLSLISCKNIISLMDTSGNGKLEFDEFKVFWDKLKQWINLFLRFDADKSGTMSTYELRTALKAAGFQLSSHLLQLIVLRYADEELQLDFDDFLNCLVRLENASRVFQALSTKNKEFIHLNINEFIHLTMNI
T1 sequence (P04632 1-268 partner): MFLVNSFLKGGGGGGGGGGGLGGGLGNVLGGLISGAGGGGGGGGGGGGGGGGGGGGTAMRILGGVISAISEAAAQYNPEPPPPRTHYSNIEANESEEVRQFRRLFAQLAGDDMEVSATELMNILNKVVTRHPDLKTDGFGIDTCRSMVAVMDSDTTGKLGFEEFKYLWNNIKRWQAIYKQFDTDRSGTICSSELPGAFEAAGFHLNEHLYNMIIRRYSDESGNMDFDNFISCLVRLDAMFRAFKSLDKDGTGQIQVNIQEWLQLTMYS
The experiment in a line: Calpain inhibition continuous fluorescence (FRET) assay, Human Calpain 9/NS1. The conditions noted are these: read-out: Human Calpain 9/NS1 IC50. It is filed as biochemical. In outline: (§1)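 Calpain activity is measured kinetically with a quenched FRET peptide in 50 mM Tris pH 7.5, 100 mM NaCl, 1 mM DTT, with CaCl2 triggering activation. Rates over 1-5 min are plotted against log inhibitor to obtain IC50 by 4-parameter logistic fitting.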

For the next test, the target named is T2, Human Calpain 1/NS1 (Homo sapiens, UniProt P07384).
T2 sequence (P07384 1-714): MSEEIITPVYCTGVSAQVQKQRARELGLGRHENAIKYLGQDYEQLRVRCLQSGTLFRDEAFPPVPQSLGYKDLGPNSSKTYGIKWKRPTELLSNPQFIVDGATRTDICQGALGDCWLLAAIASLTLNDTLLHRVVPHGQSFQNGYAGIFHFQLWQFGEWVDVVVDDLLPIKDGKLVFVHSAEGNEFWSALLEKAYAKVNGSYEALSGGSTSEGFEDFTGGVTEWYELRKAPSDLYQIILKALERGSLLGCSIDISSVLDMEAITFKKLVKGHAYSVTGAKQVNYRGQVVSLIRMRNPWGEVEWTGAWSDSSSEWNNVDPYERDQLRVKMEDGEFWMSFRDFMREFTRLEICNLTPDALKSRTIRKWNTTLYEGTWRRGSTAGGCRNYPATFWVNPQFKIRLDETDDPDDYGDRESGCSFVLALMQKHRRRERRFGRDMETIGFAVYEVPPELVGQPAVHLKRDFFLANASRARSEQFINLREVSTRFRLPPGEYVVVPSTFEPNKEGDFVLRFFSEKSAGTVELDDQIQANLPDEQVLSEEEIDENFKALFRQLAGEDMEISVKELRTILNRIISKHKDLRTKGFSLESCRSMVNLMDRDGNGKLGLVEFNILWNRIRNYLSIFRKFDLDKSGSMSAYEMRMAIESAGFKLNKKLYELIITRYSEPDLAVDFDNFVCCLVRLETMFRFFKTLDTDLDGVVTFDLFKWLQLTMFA
T2 sequence (P04632 1-268 partner): T1 sequence (P04632 1-268 partner)
The experiment in a line: Calpain inhibition continuous fluorescence (FRET) assay, Human Calpain 1/NS1. The test is classed as biochemical. The note with it: read-out: Human Calpain 1/NS1 IC50. Summed up: as §1

Test [2] deals with Calpain activity in SH-SY5Y cells. The experiment in a line: SH-SY5Y + AMC fluorescence assay (Suc-LLVY-AMC substrate). The test is classed as cell-based. The note with it: read-out: SH-SY5Y + AMC IC50.
The target in a further test is T3, Human Calpain 2/NS1 (Homo sapiens, UniProt P17655).
T3 sequence (P17655 1-700): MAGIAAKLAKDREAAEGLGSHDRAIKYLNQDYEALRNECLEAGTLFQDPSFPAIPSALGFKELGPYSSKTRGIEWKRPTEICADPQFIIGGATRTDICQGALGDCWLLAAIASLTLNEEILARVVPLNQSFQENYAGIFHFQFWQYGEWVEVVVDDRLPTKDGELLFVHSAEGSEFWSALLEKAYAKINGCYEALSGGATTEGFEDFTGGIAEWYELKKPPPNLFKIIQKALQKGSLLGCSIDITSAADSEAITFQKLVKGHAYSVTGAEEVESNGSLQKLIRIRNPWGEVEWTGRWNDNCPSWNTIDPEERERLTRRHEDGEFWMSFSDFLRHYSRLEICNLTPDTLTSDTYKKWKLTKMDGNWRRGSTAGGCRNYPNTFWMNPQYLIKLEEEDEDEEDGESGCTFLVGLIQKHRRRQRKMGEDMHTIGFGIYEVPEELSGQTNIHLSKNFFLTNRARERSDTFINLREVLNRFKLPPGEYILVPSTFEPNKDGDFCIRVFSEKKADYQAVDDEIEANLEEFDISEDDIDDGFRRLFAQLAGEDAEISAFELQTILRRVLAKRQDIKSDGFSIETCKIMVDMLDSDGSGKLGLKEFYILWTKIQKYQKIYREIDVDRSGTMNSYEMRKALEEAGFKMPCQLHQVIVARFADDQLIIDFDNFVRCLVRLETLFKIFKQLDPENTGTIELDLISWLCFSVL
T3 sequence (P04632 1-268 partner): T1 sequence (P04632 1-268 partner)
The experiment in a line: Calpain inhibition continuous fluorescence (FRET) assay, Human Calpain 2/NS1. It is filed as biochemical. The note with it: read-out: Human Calpain 2/NS1 IC50. In outline:
as §1

The mark [3] stands for this setting: A23187-induced SBDP-150, western blot.
[4] abbreviates: Column D, A23187-induced SBDP-150.

pIC50: −log10 of the molar value. Where two headings read alike, the source gives them in different places.

Regarding `NC(=O)C(=O)[C@H](Cc1ccccc1)NC(=O)c1cn(C(F)F)nc1-c1ccccc1` [Compound 379, (S)—N-(4-amino-3,4-dioxo-1-phenylbutan-2-yl)-1-(difluoromethyl)-3-phenyl-1H-pyrazole-4-carboxamide], the pIC50 in test [1] (setting [3]) is greater than 5.00; at Human Calpain 9/NS1 it was greater than 5.52; at Human Calpain 1/NS1, greater than 5.52; in test [2] it was greater than 5.00.

As to `CCn1cc(C(=O)NC(Cc2ccccc2)C(=O)C(N)=O)c(-c2cccc(F)c2)n1` (stereo not drawn) [Compound 470, N-(4-amino-3,4-dioxo-1-phenylbutan-2-yl)-1-ethyl-3-(3-fluorophenyl)-1H-pyrazole-4-carboxamide], the pIC50 was greater than 5.52 at Human Calpain 2/NS1, 4.60 to 5.00 in test [1] (setting [3]), greater than 5.52 on Human Calpain 1/NS1 and greater than 5.00 in test [2].

As to `Cc1nc(-c2cccc(F)c2)c(C(=O)N[C@@H](Cc2ccccc2)C(=O)C(N)=O)o1` [Compound 254, (S)—N-(4-amino-3,4-dioxo-1-phenylbutan-2-yl)-4-(3-fluorophenyl)-2-methyloxazole-5-carboxamide], the pIC50 in test [1] (setting [4]) was 4.60 to 5.00; on Human Calpain 9/NS1 (Column C) it was greater than 5.52; at Human Calpain 1/NS1 (Column A), greater than 5.52; in test [2] (Column E), greater than 5.00.

Consider `NC(=O)C(=O)[C@H](Cc1ccccc1)NC(=O)c1nccn1-c1ccccc1` [Compound 221, (S)—N-(4-amino-3,4-dioxo-1-phenylbutan-2-yl)-1-phenyl-1H-imidazole-2-carboxamide], for which the pIC50 at Human Calpain 2/NS1 (Column B) is greater than 5.52; in test [1] (setting [4]), less than 4.60; at Human Calpain 9/NS1 (Column C), greater than 5.52; on Human Calpain 1/NS1 (Column A), greater than 5.52.

Turning to `Cc1cc(C(=O)N[C@@H](Cc2ccccc2)C(=O)C(N)=O)n(-c2nc3ccccc3s2)n1` [Compound 13, (S)—N-(4-amino-3,4-dioxo-1-phenylbutan-2-yl)-1-(benzo[D]thiazol-2-yl)-3-methyl-1H-pyrazole-5-carboxamide], the pIC50 was greater than 5.52 at Human Calpain 2/NS1 (Column B), less than 4.60 in test [1] (setting [4]), greater than 5.52 at Human Calpain 9/NS1 (Column C) and greater than 5.52 on Human Calpain 1/NS1 (Column A).

On to `NC(=O)C(=O)C(Cc1ccccc1)NC(=O)c1nsnc1Cl` (stereo not drawn) [Compound 364, N-(4-amino-3,4-dioxo-1-phenylbutan-2-yl)-4-chloro-1,2,5-thiadiazole-3-carboxamide], for which the pIC50 on Human Calpain 2/NS1 is greater than 5.52; in test [1] (setting [3]) it was 4.60 to 5.00; on Human Calpain 9/NS1, greater than 5.52; on Human Calpain 1/NS1 it was greater than 5.52.

Take `O=C[C@H](Cc1ccccc1)NC(=O)c1ccnn1-c1ccccc1` [Compound 2, (S)—N-(1-oxo-3-phenylpropan-2-yl)-1-phenyl-1H-pyrazole-5-carboxamide]: the pIC50 at Human Calpain 2/NS1 (Column B) was greater than 5.52; in test [1] (setting [4]) it was 4.60 to 5.00; on Human Calpain 9/NS1 (Column C) it was greater than 5.52; at Human Calpain 1/NS1 (Column A), greater than 5.52.

For `NC(=O)C(=O)C(Cc1ccccc1)NC(=O)c1cn(C(F)F)nc1-c1cc(F)cc(F)c1` (stereo not drawn) [Compound 523, N-(4-amino-3,4-dioxo-1-phenylbutan-2-yl)-1-(difluoromethyl)-3-(3,5-difluorophenyl)-1H-pyrazole-4-carboxamide], the pIC50 in test [1] (setting [3]) was 4.60 to 5.00; on Human Calpain 1/NS1 it was greater than 5.52; in test [2], greater than 5.00.

For `Cn1cc(C(=O)NC(Cc2ccccc2)C(=O)C(N)=O)c(-c2ccnc3ccccc23)n1` (stereo not drawn) [Compound 611, N-(4-amino-3,4-dioxo-1-phenylbutan-2-yl)-1-methyl-3-(quinolin-4-yl)-1H-pyrazole-4-carboxamide], the pIC50 at Human Calpain 2/NS1 was greater than 5.52; in test [1] (setting [3]), 4.60 to 5.00; on Human Calpain 9/NS1, greater than 5.52; at Human Calpain 1/NS1, greater than 5.52.

Regarding `Cn1cc(C(=O)N[C@@H](Cc2ccccc2)C(=O)C(=O)NCCNC(=O)OC(C)(C)C)c(-c2ccccc2)n1` [Compound 340, Tert-butyl (S)-(2-(3-(1-methyl-3-phenyl-1H-pyrazole-4-carboxamido)-2-oxo-4-phenylbutanamido)ethyl)carbamate], the pIC50 was greater than 5.52 on Human Calpain 2/NS1, less than 4.60 in test [1] (setting [3]), greater than 5.52 on Human Calpain 9/NS1 and greater than 5.52 on Human Calpain 1/NS1.

`Cn1cc(C(=O)NC(Cc2ccccc2)C(=O)C(N)=O)c(-c2ccc(C#N)nc2)n1` (stereo not drawn) [Compound 481, N-(4-amino-3,4-dioxo-1-phenylbutan-2-yl)-3-(6-cyanopyridin-3-yl)-1-methyl-1H-pyrazole-4-carboxamide]: the pIC50 on Human Calpain 2/NS1 is greater than 5.52; in test [1] (setting [3]), less than 4.60; at Human Calpain 9/NS1 it was greater than 5.52; on Human Calpain 1/NS1, greater than 5.52.

Consider `C#CCOCc1ccc(-c2nn(C)cc2C(=O)N[C@@H](Cc2ccccc2)C(=O)CF)c(F)c1` [Compound 521, (S)—N-(4-fluoro-3-oxo-1-phenylbutan-2-yl)-3-(2-fluoro-4-((prop-2-yn-1-yloxy)methyl)phenyl)-1-methyl-1H-pyrazole-4-carboxamide], for which the pIC50 was greater than 5.52 at Human Calpain 2/NS1, 4.60 to 5.00 in test [1] (setting [3]), 5.00 to 5.52 at Human Calpain 9/NS1 and greater than 5.52 at Human Calpain 1/NS1.

As to `Cc1cc(C(=O)N[C@@H](Cc2ccccc2)C(=O)C(N)=O)n(-c2cccc(CNC(=O)OCc3ccccc3)c2)n1` [Compound 343, Benzyl (S)-(3-(5-((4-amino-3,4-dioxo-1-phenylbutan-2-yl)carbamoyl)-3-methyl-1H-pyrazol-1-yl)benzyl)carbamate], the pIC50 is greater than 5.52 on Human Calpain 2/NS1, 4.60 to 5.00 in test [1] (setting [3]), greater than 5.52 on Human Calpain 9/NS1 and greater than 5.52 on Human Calpain 1/NS1.

For the molecule `NC(=O)C(=O)C(Cc1ccccc1)NC(=O)c1nsnc1-c1ccc2c(c1)OC(F)(F)O2` (stereo not drawn) [Compound 599, N-(4-amino-3,4-dioxo-1-phenylbutan-2-yl)-4-(2,2-difluorobenzo[d][1,3]dioxol-5-yl)-1,2,5-thiadiazole-3-carboxamide], the figures for the pIC50 (in test [1] (setting [3]); on Human Calpain 9/NS1; in test [2]) were less than 4.60, greater than 5.52 and less than 4.60, respectively.

The record behind these values is US11339130B1 (Blade Therapeutics, Inc., priority 2016, dated 2022).
